US20110256121A1, “METHODS AND KITS FOR DIAGNOSING OR MONITORING AUTOIMMUNE AND CHRONIC INFLAMMATORY DISEASES” (THE REGENTS OF THE UNIVERSITY OF MICHIGAN, priority 2008, published 2011)

Experiments:
CD70 expression = CD70 expression on CD4+ cells of PBMCs cultured with lupus medications; type: cell-based, human; conditions: 1-100 μM, 24 hours, PBMCs with or without PHA
Protocol: (§1) Cells and cell culture. Peripheral blood mononuclear cells (PBMCs) were isolated by density-gradient centrifugation. T cells were then isolated by E-rosetting (See, e.g., Golbus et al., Clin Immunol Immunopathol 46, 129 (1988)). […] Where indicated, the cells were cultured in RPMI 1640/10% fetal calf serum (FCS) supplemented with interleukin-2 (IL-2) (See, e.g., Richardson et al., Clin Immunol Immunopathol 55, 368 (1990)), in round-bottomed 5-ml culture tubes (Falcon). Cells were stimulated with 1 μg/ml of PHA (Remel) for 16 hours, then cultured in 24-well plates at a density of 1×10^6 for an additional 72 hours in the presence of 2-deoxy-5-azaC or 5-azaC (Sigma-Aldrich), procainamide (Sigma-Aldrich), hydralazine (Sigma-Aldrich), or the MEK inhibitors U0126 (Promega) or PD98059 (Promega). In other studies, PHA-stimulated PBMCs were cultured in RPMI 1640/10% FCS and treated with indomethacin, chloroquine, hydrocortisone, and 6-mercaptopurine (6-MP) (all from Sigma-Aldrich). TT48E, a cloned, CD4+, tetanus toxoid-reactive human T cell line, was cultured as previously described (Cornacchia et al., J Immunol 140, 2197 (1988); Richardson et al., Arthritis Rheum 35, 647 (1992)).
(§2) Flow cytometric analysis. The following fluorochrome-conjugated monoclonal antibodies were obtained from BD PharMingen (San Diego, Calif.): FITC-conjugated anti-human CD70, CD2, or isotype-matched controls; phycoerythrin (PE)-conjugated anti-CD2, CD4, and CD8; and CyChromeconjugated anti-HLA-DR, CD2, and isotype controls. Staining and multicolor flow cytometric analysis were performed (See, e.g., Hale et al., Cell Immunol 220, 51 (2002)) using saturating concentrations of antibody.

T cell genes = conditions: PHA-stimulated T cells, 2-deoxy-5-azaC
CD70 mRNA = assay: CD70 transcripts by real time RT-PCR in anti-CD3 + anti-CD28 stimulated CD4+ T cells; type: cell-based, human; conditions: 5 μm 5-azaC, 50 μm Pca, 20 μm Hyd, 40 μm U0126, 25 μm PD98059, 3 days
Protocol: (§3) In other studies, T cells were isolated by negative selection using magnetic beads and instructions provided by the manufacturer (Pan T cell Isolation Kit, Miltenyi), and the CD4+ or CD8+ subset was similarly isolated by magnetic cell sorting. Jurkat cells (E6-1) were cultured as previously described (See, e.g., Cornacchia et al., J Immunol 140:2197 (1998)). Purified human CD4+ T cells were first stimulated with plate bound anti-CD3 and soluble anti-CD28. Briefly, 24 well plates were coated with 300 μl of anti-CD3 (10 μg/ml in PBS—SouthernBiotech) 18 hours 4° C., washed, then 2×10^6 purified T cells were added to the wells in 2 ml RPMI 1640/10% FCS containing 2 μg/ml anti-CD28 (SouthernBiotech). The plates were incubated 37° C. in a humidified atmosphere containing 5% CO2 for 18-24 hours, then treated with 5 μm 5-azaC (Aldrich), 50 μm Pca (Sigma), 20 μm Hyd (Aldrich), 40 μm UO126 (Promega) or 25 μm PD98059 (Promega), and cultured for 3 additional days as described (See, e.g., Oelke et al., Arthritis Rheum 50:1850 (2004)).

T cell CD70 expression = assay: CD70 expression on PHA-stimulated T cells by flow cytometry; type: cell-based, human; conditions: for CD70 expression on treated vs untreated PHA-stimulated T cells: unfractionated T cells, 3 days, 1 μM 5-azaC, dose-response for procainamide, PD98059, U0126
Protocol: as §1, §2
The panel of inhibitors used included 5-azaC, an irreversible DNA methyltransferase inhibitor (See, e.g., Glover and Leyland-Jones, Cancer Treat Rep 71, 959 (1987)) procainamide, a competitive DNA methyltransferase inhibitor (See e.g., Scheinbart et al., J Rheumatol 18, 530 (1991)), and the ERK pathway inhibitors PD98059, U0126, and hydralazine.
Studies were performed examining the effects of the DNA methylation inhibitors on CD70 expression in CD4+ and CD8+ T cell subsets.

CD70 promoter = assay: Bisulfite sequencing of the CD70 promoter in CD4+ T cells; type: cell-based, human; conditions: for methylation of the 10 CG pairs between −515 and −423 of the CD70 promoter: anti-CD3 and anti-CD28 stimulated CD4+ T cells vs stimulated untreated controls
Protocol: as §3
Bisulfite sequencing. The putative CD70 promoter was identified using the published CD70 cDNA sequence and Tfsitescan software. Deoxycytosine (dC) and deoxymethylcytosine (d^mC) bases in the gene promoter and 5′ flanking sequences were identified by bisulfite treatment of purified DNA followed by nested PCR amplification of 3 sequential fragments to span the entire region. The primers were designed to avoid CG pairs and to account for the conversion of dC to dU by the bisulfite. EcoRI sites were added to the forward primers, and XbaI to the reverse, to facilitate cloning. The amplified fragments were then cloned into PBS+, and 5 clones sequenced for each fragment. The primers used were: […]
The effect of lupus and DNA methylation inhibitors on a regulatory element in the CD70 promoter was examined. DNA was isolated from the CD4+ T cells of 7 healthy individuals or 6 lupus patients, bisulfite treated, the region from −466-−515, containing 6 CG pairs was amplified by PCR, and 5 fragments sequenced from each individual. The average methylation status of the 6 CG pairs for healthy versus lupus individuals is shown (FIG. 8, NI and Lupus, respectively). CD4+ T cells from 5 individuals were also stimulated with PHA, treated with the irreversible DNA methyltransferase inhibitor 5-azacytidine (5-azaC), and the methylation status of the 6 CG pairs similarly analyzed from the 25 fragments sequenced (FIG. 8, 5-azaC). […] Results are presented as the mean±SEM of the average methylation of the 6 CG pairs, measured from the 10-35 determinations/group.
The effects of the DNA methylation inhibitors on the methylation status of this region were then compared. […] Again, 5 cloned fragments were sequenced from each control, for a total of 35 determinations per CG pair. […] FIG. 14 compares the average methylation for the 10 CG pairs (−515 to −423) in the T cells treated with DNA methylation inhibitors relative to stimulated, untreated controls.

[1] = molecular target: KIR3DL1 on human T cells (human) (UniProt P43629); assay: cell-based or functional assay
KIR3DL1 on human T cells (human), sequence (P43629 22-444): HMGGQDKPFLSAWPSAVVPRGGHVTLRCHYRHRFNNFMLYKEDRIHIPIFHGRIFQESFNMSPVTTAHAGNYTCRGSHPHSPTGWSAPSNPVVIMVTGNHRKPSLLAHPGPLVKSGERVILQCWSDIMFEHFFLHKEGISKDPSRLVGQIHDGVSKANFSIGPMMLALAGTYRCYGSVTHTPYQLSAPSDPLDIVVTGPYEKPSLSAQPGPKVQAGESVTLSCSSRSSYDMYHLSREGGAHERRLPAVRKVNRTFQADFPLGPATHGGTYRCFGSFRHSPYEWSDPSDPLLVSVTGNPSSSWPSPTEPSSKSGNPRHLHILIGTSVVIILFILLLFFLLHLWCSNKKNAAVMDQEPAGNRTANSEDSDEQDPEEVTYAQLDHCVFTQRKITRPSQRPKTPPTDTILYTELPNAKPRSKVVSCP

Sc1ncnc2nc[nH]c12 [6-MP, 6-mercaptopurine]
CD70 expression on stimulated or unstimulated CD4+ cells (CD70 expression): No increase in CD70 expression was seen

COc1ccc2c(c1)c(CC(=O)O)c(C)n2C(=O)c1ccc(Cl)cc1 [indomethacin]
CD70 expression on stimulated or unstimulated CD4+ cells (CD70 expression): No increase in CD70 expression was seen

CCN(CC)CCCC(C)Nc1ccnc2cc(Cl)ccc12 (stereo not drawn) [chloroquine]
CD70 expression on stimulated or unstimulated CD4+ cells (CD70 expression): No increase in CD70 expression was seen

Nc1ncn([C@H]2C[C@H](O)[C@@H](CO)O2)c(=O)n1 [2-deoxy-5-azaC]
CD70 expression increase in treated cells relative to untreated controls (T cell genes; 3 days, oligonucleotide arrays, mean±SEM, 2 independent experiments): 2.6±0.6 fold
genes decreased ≧2-fold (T cell genes; treated vs untreated): 12 genes
genes reproducibly increased ≧2-fold (T cell genes; treated vs untreated): 118 genes

CCN(CC)CCNC(=O)c1ccc(N)cc1 [procainamide]
CD70 transcripts relative to β-actin, treated vs untreated (CD70 mRNA): increase CD70 transcripts
CD70 expression on CD4+ T cells (T cell CD70 expression): increased CD70 expression on CD4+ T cells
CD70 expression on treated vs untreated PHA-stimulated T cells (T cell CD70 expression): increase in the ratio of the mean fluorescence intensity (MFI) of CD70 expression
methylation of the CD70 promoter region −466-−515 (6 CG pairs) (CD70 promoter; PHA-stimulated CD4+ T cells): demethylate this region
methylation of the 10 CG pairs between −515 and −423 of the CD70 promoter (CD70 promoter): appears to demethylate

COc1cccc(-c2cc(=O)c3ccccc3o2)c1N [PD98059]
CD70 transcripts relative to β-actin, treated vs untreated (CD70 mRNA): increase CD70 transcripts
increase of CD70 MFI on CD4+ T cells (T cell CD70 expression; 25 μM PD98059, n=3, P=0.032): 1.63±0.43 fold
CD70 expression on CD4+ T cells (T cell CD70 expression): increased CD70 expression on CD4+ T cells
CD70 expression on treated vs untreated PHA-stimulated T cells (T cell CD70 expression): increase in CD70 expression with treatment
methylation of the 10 CG pairs between −515 and −423 of the CD70 promoter (CD70 promoter): appears to demethylate

anti-NKB1 (KIR3DL1) antibody (BD PharMingen)
% cytotoxicity (51Cr release from autologous monocytes/macrophages) (% cytotoxicity) [1]: 37

C[C@]12CCC(=O)C=C1CC[C@@H]1[C@@H]2[C@@H](O)C[C@@]2(C)[C@H]1CC[C@]2(O)C(=O)CO [hydrocortisone]
CD70 expression on stimulated or unstimulated CD4+ cells (CD70 expression): No increase in CD70 expression was seen
